Several values for one entry are separate records, joined by “and”; a condition that tells them apart may be missing. Equal values may be shown once. Read-outs that look alike come from different tables or passages of the source.
Experiments:
Format in all cases: cell-based
HCoV-OC43 = assay: qRT-PCR evaluation of antiviral efficacy (viral RNA level in culture supernatant), HCT8 cells infected with HCoV-OC43; conditions: 1 µM PNA oligomer; HCT8 cells infected with HCoV-OC43 at 500 TCID50; viral RNA from cell supernatant on Day 3 after infection
Procedure: In order to analyze the level of viral RNA in viral particles present in a virus culture solution to determine how well the constructed PNA oligomer-based drugs inhibit viral genetic replication, qRT-PCR was performed.
Specifically, HCT8 cells cultured in 6-well plates one day before for drug screening were infected with HCoV-OC43 at a dose of 500 TCID50 using a serum-free RPMI medium. At the same time as infection, the cells were also treated with 1 µM of PNA oligomer, and after 30 minutes, the cells were washed twice with serum-free RPMI, and then the medium was replaced with an RPMI-Complete medium (containing 10% FBS and 1% penicillin/streptomycin) and the cells were treated with 1 µM of PNA oligomer. On Day 3 after infection, viral RNA was extracted from 140 µL of the cell supernatant using a QIAamp viral RNA mini kit manufactured by Qiagen. Virus extraction was performed according to the kit manual. The viral titer of the extracted viral RNA was measured by real-time PCR using a One step TB green kit manufactured by Takara. The primers used are as follows. HCoV-OC43 primer; Nucleoprotein (NP) gene (5'-[…]-3', 5'-[…]-3'). Real-time PCR conditions are as follows. Temperature Stage 1: Reverse transcription 42°C 5 min, 95°C 10 sec, 1 Cycle. Stage 2: PCR reaction 95°C 5 sec, 60°C 34 sec, 35 Cycles. Stage 3: melting curve analysis 95°C 15 sec, 65°C 60 sec, 95°C 15 sec.

SARS-CoV-2 virus = conditions: Vero cells, 1000 to 0.49 nM, 2-fold dilution, viral RNA after 24 hours, three repeated experiments
SARS-CoV-2 = conditions: 1000 nM; Vero cells pre-incubated 2 hours; viral RNA 24 hours after infection

Compound | Inhibition% (HCoV-OC43) [%] | IC50 (SARS-CoV-2 virus) | IC50 (SARS-CoV-2 virus; listed as Paxlovid (P.C)-1) [nM] | IC50 (SARS-CoV-2 virus; listed as Paxlovid (P.C)-2) [nM] | IC50 (SARS-CoV-2 virus; listed as Paxlovid (P.C)-3) [nM] | Inhibition% (SARS-CoV-2) [%]
CC(C)(C)[C@H](NC(=O)C(F)(F)F)C(=O)N1C[C@H]2[C@@H]([C@H]1C(=O)N[C@H](C#N)C[C@@H]1CCNC1=O)C2(C)C [PF07321332, Nirmatrelvir] | 97.98 | – | – | – | – | –
Paxlovid | – | 317 nM and 328 nM and 464 nM | 317 | 328 | 464 | 96.03

Source: patent EP4721753A1, “PHARMACEUTICAL COMPOSITION FOR PREVENTING OR TREATING CORONAVIRUS INFECTIOUS DISEASES COMPRISING CELL-PERMEABLE PEPTIDE-NUCLEIC ACID OLIGOMER AS ACTIVE INGREDIENT” (GiftedMS Co., Ltd., priority 2023, dated 2024)
